Results taken from patent US20160115540A1, “PRODRUGS AND DRUGS” (Biogen MA Inc., priority 2013, published 2016).
Counter-ions that a name gives are not always drawn.

Columns and labels:
hippocampus = experiment: Transcriptional profiling on Affymetrix GeneChips, single dose, naïve mice: hippocampus; type: in vivo, C57BL/6 mice; settings: for Number of differentially expressed genes identified: Hippocampus: Naïve, Single Dose, 100 mpk, vs Vehicle
Experimental: (§1) Treated mice were sacrificed at 2, 7, or 12 hours. Tissues (liver, spleen, kidney, jejunum, cortex, hippocampus, striatum and whole blood) were collected and analyzed by transcriptional profiling on mouse Affymetrix GeneChips.
(§2) Tissues (liver, spleen, kidney, jejunum, cortex, hippocampus, striatum and whole blood) were collected and analyzed by transcriptional profiling on mouse Affymetrix GeneChips.
(§3) Animals were exposed to CO2 and whole blood collected via cardiac puncture. Two 100 μl aliquots of whole blood were collected in 1.5 mL microcentrifuge tubes and snap frozen in liquid nitrogen. Peripheral (liver, spleen, kidney and jejunum) and CNS brain (cerebellum, hippocampus, striatum and cortex) tissues were harvested and snap frozen in liquid nitrogen, with special care taken to collect tissues of similar size and from the same location. All samples were stored at −80° C. until RNA extraction was conducted.
(§4) For RNA preparation, frozen tissues were placed in 2 mL RNAse-free 96-well blocks with 1.5 mL QIAzol Lysis Reagent (QIAgen) and a 3.2 mm stainless steel bead (BioSpec Products, Bartlesville, Okla.). Tissues were disrupted for four cycles of 45 seconds in a Mini-Beadbeater (Biospec Products). RNA was extracted in chloroform and the aqueous phase was mixed with an equal volume of 70% ethanol. Extracted RNA was applied to RNeasy 96 plates and purified by the spin method according to the manufacturer's protocol (RNeasy 96 Universal Tissue Protocol, QIAgen, Hilden Germany).
(§5) Automated sample amplifications and biotin labelings were carried out using the NuGEN Ovation RNA Amplification system V2 (Cat #3100), Ovation WB reagent (Cat #1300) and Encore Biotin module (Cat #4200) (NuGEN Technologies, Inc, San Carlos, Calif.) according to manufacturer's recommendations using an Arrayplex automated liquid handler (Beckman Coulter, Indianapolis, Ind.). Two micrograms of biotin labeled sscDNA probe were hybridized to Affymetrix GeneChip Affymetrix HT_MG-430_PM plate arrays with modified conditions as described in Allaire et al. Washing and staining of the hybridized arrays were completed as described in the GeneChip Expression analysis technical manual for HT plate arrays using the Genechip® Array Station (Affymetrix, Santa Clara, Calif.) with modifications as described in Allaire et al. The processed GeneChip® plate arrays were scanned using GeneTitan scanner (Affymetrix, Santa Clara, Calif.).
(§6) Affymetrix scans were subject to quality control (QC) measures. These tests included a visual inspection of the distribution of raw signal intensities and an assessment of RNA degradation, relative log expression (RLE), and normalized unsealed standard error (NUSE). All sample scans that passed these QC metrics were included in the analysis.
(§7) All CEL files were subjected to GC-content-based Robust Multi-array Average (GCRMA) normalization (version 2.20.0) (Irizarry R A, et al. Nucleic Acids Res 2003; 31:e15; Li C, et al. Genome Biol 2001; 2:[…]0032). Expression levels were log (base 2) transformed.
(§8) All calculations and analyses were carried out using R (version 2.11.1) and Bioconductor computational tools (Gentleman R. Springer Science+Business Media 2005).

striatum = experiment: Transcriptional profiling on Affymetrix GeneChips, single dose, naïve mice: striatum; type: in vivo, C57BL/6 mice; settings: for Number of differentially expressed genes identified: Striatum: Naïve, Single Dose, 100 mpk, vs Vehicle
Experimental: as §1, §2, §3, §4, §5, §6, §7, §8

[1] = hippocampus, 100MMF-vs-Veh, 2 h
[2] = hippocampus, 100MMF-vs-Veh, 7 h
[3] = hippocampus, 2 hr after single 100 mg/kg oral dose
[4] = striatum, 2 hr after single 100 mg/kg oral dose

With COC(=O)/C=C/C(=O)O [MMF, monomethyl fumarate] the “Number of genes, DMF Only / MMF Only” value (hippocampus; Hippocampus) was 6, the “Dnajc18 (1425077_PM_at) differential expression” value (hippocampus; Hippocampus, 2 hr) was −1.58 and the “Heatr5b (1438085_PM_at) differential expression” value (hippocampus; Hippocampus, 2 hr) was −1.56. The “Kcnq3 (1458421_PM_at) differential expression” value (hippocampus; Hippocampus, 2 hr) was −1.50, the “Kpna4 (1417975_PM_at) differential expression” value (hippocampus; Hippocampus, 2 hr) was −1.51 and the “Nfat5 (1426029_PM_a_at) differential expression” value (hippocampus; Hippocampus, 2 hr) was −1.51. For the same molecule, the “Srgap2 (1434407_PM_at) differential expression” value (hippocampus; Hippocampus, 2 hr) was −1.50, the “Tmtc3 (1458305_PM_at) differential expression” value (hippocampus; Hippocampus, 7 hr) was −2.40 and the “Number of differentially expressed genes identified: Hippocampus” value (“Number of differentially … Hippocampus” for short) (hippocampus; 2 h after last dosing) was 3. For the same molecule, the “Number of differentially … Hippocampus” value (hippocampus; 7 h after last dosing) was 2, the “Number of differentially … Hippocampus” value (hippocampus; 12 h after last dosing) was 1 and the “FC Heatr5b (1438085_PM_at)” value (hippocampus; [1]) was −1.56. For the same molecule, the “FC Kpna4 (1417975_PM_at)” value (hippocampus; [1]) was −1.51, the “FC Srgap2 (1434407_PM_at)” value (hippocampus; [1]) was −1.50 and the “FC Tmtc3 (1458305_PM_at)” value (hippocampus; [2]) was −2.40. The “FC probe 1443353_PM_at” value (hippocampus; [2]) was −1.74, the “FC LOC100502895 (1435119_PM_at)” value (hippocampus; hippocampus, 100MMF-vs-Veh, 12 h) was 1.66 and the “Dnajc18 mRNA fold change vs vehicle” value (hippocampus; [3]) was −1.58. The “Heatr5b mRNA fold change vs vehicle” value (hippocampus; [3]) was −1.56, the “Kcnq3 mRNA fold change vs vehicle” value (hippocampus; [3]) was −1.50 and the “Kpna4 mRNA fold change vs vehicle” value (hippocampus; [3]) was −1.51. For the same molecule, the “Nfat5 mRNA fold change vs vehicle” value (hippocampus; [3]) was −1.51, the “Srgap2 mRNA fold change vs vehicle” value (hippocampus; [3]) was −1.50 and the “Tmtc3 mRNA fold change vs vehicle” value (hippocampus; hippocampus, 7 hr after single 100 mg/kg oral dose) was −2.40. For the same molecule, the “Number of differentially expressed genes identified: Striatum” value (shortened to “Number of differentially … Striatum”) (striatum; 2 h after last dosing) was 6, the “Number of differentially … Striatum” value (striatum; 7 h after last dosing) was 1 and the “Number of differentially … Striatum” value (striatum; 12 h after last dosing) was 7. For the same molecule, the “Number of genes, DMF Only / MMF Only” value (striatum; Striatum) was 12, the “Gna13 (1422556_PM_at) differential expression” value (striatum; Striatum, 2 hr) was −1.63 and the “Golga3 (1449616_PM_s_at) differential expression” value (striatum; Striatum, 2 hr) was −1.63. For the same molecule, the “Grin2a (1421616_PM_at) differential expression” value (striatum; Striatum, 2 hr) was −1.78, the “Kdm3b (1428320_PM_at) differential expression” value (striatum; Striatum, 2 hr) was −1.56 and the “Lrrc41 (1427125_PM_s_at) differential expression” value (striatum; Striatum, 2 hr) was −1.54. For the same molecule, the “Top2b (1448458_PM_at) differential expression” value (striatum; Striatum, 2 hr) was −1.56, the “Aox1 (1419435_PM_at) differential expression” value (striatum; Striatum, 7 hr) was 1.95 and the “Adamts9 (1437785_PM_at) differential expression” value (striatum; Striatum, 12 hr) was −2.58. The “Galnt12 (1437760_PM_at) differential expression” value (striatum; Striatum, 12 hr) was 1.50, the “Hrh3 (1448807_PM_at) differential expression” value (striatum; Striatum, 12 hr) was 1.59 and the “Itpkb (1435272_PM_at) differential expression” value (striatum; Striatum, 12 hr) was −1.56. The “Pvrl3 (1457257_PM_x_at) differential expression” value (striatum; Striatum, 12 hr) was −1.80, the “St18 (1455123_PM_at) differential expression” value (striatum; Striatum, 12 hr) was −1.69 and the “Tmprss6 (1428676_PM_at) differential expression” value (striatum; Striatum, 12 hr) was 1.68. For the same molecule, the “FC Golga3 (1449616_PM_s_at)” value (striatum; striatum, 100MMF-vs-Veh, 2 h) was −1.63, the “FC Grin2a (1421616_PM_at)” value (striatum; striatum, 100MMF-vs-Veh, 2 h) was −1.78 and the “FC Kdm3b (1428320_PM_at)” value (striatum; striatum, 100MMF-vs-Veh, 2 h) was −1.56. The “FC Lrrc41 (1427125_PM_s_at)” value (striatum; striatum, 100MMF-vs-Veh, 2 h) was −1.54, the “FC Top2b (1448458_PM_at)” value (striatum; striatum, 100MMF-vs-Veh, 2 h) was −1.56 and the “FC probe 1442867_PM_at” value (striatum; striatum, 100MMF-vs-Veh, 2 h) was −1.57. The “FC Aox1 (1419435_PM_at)” value (striatum; striatum, 100MMF-vs-Veh, 7 h) was 1.95, the “FC Adamts9 (1437785_PM_at)” value (striatum; striatum, 100MMF-vs-Veh, 12 h) was −2.58 and the “FC Galnt12 (1437760_PM_at)” value (striatum; striatum, 100MMF-vs-Veh, 12 h) was 1.50. For the same molecule, the “FC Hrh3 (1448807_PM_at)” value (striatum; striatum, 100MMF-vs-Veh, 12 h) was 1.59, the “FC Itpkb (1435272_PM_at)” value (striatum; striatum, 100MMF-vs-Veh, 12 h) was −1.56 and the “FC Pvrl3 (1457257_PM_x_at)” value (striatum; striatum, 100MMF-vs-Veh, 12 h) was −1.80. For the same molecule, the “FC St18 (1455123_PM_at)” value (striatum; striatum, 100MMF-vs-Veh, 12 h) was −1.69, the “FC Tmprss6 (1428676_PM_at)” value (striatum; striatum, 100MMF-vs-Veh, 12 h) was 1.68 and the “Gna13 mRNA fold change vs vehicle” value (striatum; [4]) was −1.63. The “Golga3 mRNA fold change vs vehicle” value (striatum; [4]) was −1.63 and the “Grin2a mRNA fold change vs vehicle” value (striatum; [4]) was −1.78.
